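1) Cells in 96-well plates. 2) Compound, 48 h, 5 concentrations. 3) Linear interpolation between surrounding doses. 4) Unreached endpoint = highest concentration. GI50 = concentration required for 50% inhibition of growth. TGI denotes the concentration required for complete inhibition of growth.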

Assay in all cases: NCI anticancer screen, dose series, 48 h
The subject of experiment [1] is ACHN renal.
Experiment [2] concerns MDA-MB-435.
Experiment [3] has as its system U251 CNS.
Experiment [4] has as its system NCI-H460 lung.
The subject of experiment [5] is HT29 colon.
In experiment [6] the test system is NCI-H226 lung.
Experiment [7] concerns MCF7 breast.
For experiment [8], the system named is OVCAR-8 ovarian.
Experiment [9] concerns HL-60(TB) leukemia.
For experiment [10], the system named is SK-MEL-5 melanoma.

As to `C[C@]12Cc3cnc(-c4ccccc4)nc3C[C@@H]1CC[C@@H]1[C@@H]2CC[C@@]2(C)[C@H]1CC[C@]2(C)O`, the TGI in [1] was > 64.9 µM; in [2] it was > 70.4 µM; in [3], 41.4 µM; in experiment [4] it was 39.4 µM; in experiment [5] it was 23.7 µM; in experiment [6] it was 58.1 µM. Moreover, the TGI in experiment [7] is 76.5 µM; in [8] it was 40.4 µM; in [9], > 100 µM; in experiment [10] it was 42.9 µM.

As for `O=C1CCCC/C1=C1/SC(=Nc2ccccc2)C(=Nc2ccccc2)N1c1ccccc1`, the TGI in experiment [3], in experiment [4], in experiment [5], in experiment [6], in experiment [7] and in [8] was > 100 µM throughout. Also, the TGI in experiment [9] is > 100 µM.

Consider `O=NN1C(c2ccccc2)C2CCCC(C2=O)C1c1ccccc1` (centres undefined), for which the TGI in experiment [3] is > 84.9 µM; in experiment [4] it was 48.3 µM; in experiment [5], 40.1 µM; in [6], 71 µM; in experiment [7] it was 46.4 µM; in [8], > 100 µM. The values for the TGI in [9] and in [10] were 44.7 µM and 35.7 µM, respectively.

Turning to `O=C(O)C(O)(c1ccc(-c2ccccc2)cc1)c1ccc(-c2ccccc2)cc1`, the TGI in [1] is 94.7 µM; in experiment [2], 43.7 µM; in [3], 32.7 µM; in experiment [4], 45.9 µM; in experiment [5], > 100 µM; in experiment [6], 62.6 µM. In addition, the TGI was > 100 µM in experiment [8], 49.7 µM in experiment [9] and 37.4 µM in experiment [10].

On to `COC1CC(OC2CCC3(C)C(=CCC4C3C(OC(C)=O)C(OC(=O)CC(C)C)C3(C)C(C(C)=O)CCC43O)C2)OC(C)C1OC1CC(OC)C(OC2CC(OC)C(OC3OC(C)C(O)C(OC)C3O)C(C)O2)C(C)O1` (centres undefined), for which the TGI in experiment [1] is > 100 µM; in experiment [2], 63.5 µM; in [3], > 100 µM; in experiment [4], > 100 µM; in experiment [5] it was 42.8 µM; in [6], 89.9 µM. For the same compound, the TGI in [7] was 93.6 µM; in experiment [8] it was > 100 µM; in [9], 74.5 µM; in [10] it was 42.7 µM.

For the compound `COc1ccc(NC(=S)NNC(=O)c2nsc3ccccc23)cc1`, the TGI in experiment [1] was > 100 µM; in experiment [3], > 100 µM; in [4], > 100 µM; in experiment [5], > 100 µM; in experiment [8], > 100 µM; in [9] it was 60.8 µM. Besides, in experiment [10], the TGI was > 100 µM.

For `COc1ccc(C(=O)NC2=C(Cl)C(=O)c3ccccc3C2=O)cc1`, the TGI is 1.73 µM in experiment [1]; 7.53 µM in experiment [2]; 8.38 µM in experiment [3]; 13.7 µM in experiment [4]; 19.4 µM in experiment [5]; 9.32 µM in experiment [6]. The TGI in experiment [7] was 17.8 µM; in experiment [8], 14.4 µM; in experiment [9] it was > 100 µM; in experiment [10] it was 4.59 µM.

For `Clc1ccc(C2CC(c3cccc(Nc4ccncc4)c3)=NN2c2ccc(Cl)cc2)cc1` (centres undefined), the GI50 is 1.64 µM in [1]; 1.71 µM in [2]; 1.86 µM in [4]; 12.4 µM in experiment [6]; 1.74 µM in experiment [10]. Besides, the TGI came out at 3 µM in experiment [1]; 3.24 µM in experiment [2]; 3.61 µM in [4]; 38.3 µM in experiment [6]; 3.15 µM in experiment [10].

As to `Nc1c(OCC(=O)O)ccc2cc(S(=O)(=O)O)ccc12`, the TGI in experiment [1], in experiment [2], in experiment [3], in experiment [4], in experiment [6] and in [7] was > 100 µM each time. For the same compound, the TGI in experiment [8], in experiment [9] and in experiment [10] was > 100 µM throughout.

For `Clc1cc2ccccc2c2ccccc12`, the TGI in [1], in [2], in experiment [3], in experiment [4], in [5] and in [6] was > 100 µM in each case. Further, the TGI in experiment [7], in experiment [8], in experiment [9] and in experiment [10] was > 100 µM in each case.

Turning to `c1ccc2c(c1)OCCc1cn[nH]c1-2`, the TGI in experiment [3] is > 100 µM; in [4] it was > 100 µM; in [5], > 100 µM; in experiment [6] it was 95.5 µM; in experiment [7], > 100 µM; in [8], > 100 µM. Further, the TGI in experiment [9] and in [10] was > 100 µM throughout.

Turning to `CCOC(=O)c1nc2ccccc2n(CC)c1=O`, the TGI in experiment [1], in [2], in experiment [3], in [4], in [5] and in [6] was > 100 µM throughout. The TGI in experiment [7], in experiment [8], in experiment [9] and in [10] was > 100 µM throughout.

As to `CC[C@@]1(OC(=O)CN(C)C)C(=O)OCc2c1cc1n(c2=O)Cc2cc3c(N)cccc3nc2-1`, the GI50 was 0.0286 µM in experiment [1]; 0.078 µM in experiment [2]; 0.0217 µM in [3]; 0.118 µM in [5]; 0.0233 µM in experiment [6]; 0.0115 µM in experiment [7]. Also, the GI50 in experiment [8] is 0.0272 µM; in experiment [9], 0.0226 µM. Besides, the TGI in [1] was 0.287 µM; in [2], 0.259 µM; in experiment [3], 0.249 µM; in [5], > 100 µM; in experiment [6], 0.161 µM; in [7], > 100 µM. For the same compound, the TGI came out at 0.488 µM in experiment [8] and 10.7 µM in [9].

As to `OC(c1ccc(Cl)cc1)(c1ccc(Cl)cc1)c1cncnc1`, the TGI in experiment [2] worked out at 36.7 µM; in [3] it was 37.8 µM; in experiment [4], 36.4 µM; in [5], 32.1 µM; in experiment [6] it was 42.2 µM; in [7] it was 47.8 µM. Further, the TGI in [8] worked out at 54.8 µM; in [10], 27 µM.

For the compound `CN(C)CCCNc1ccc2nnn3c4ccc(OC(=O)c5ccccc5)cc4c(=O)c1c23`, the TGI in experiment [1] is 16.5 µM; in [2], 19.1 µM; in experiment [3] it was 29 µM; in [4] it was 25.2 µM; in experiment [5] it was 22.2 µM; in experiment [7] it was 30 µM. In [8], this compound returned a TGI of 39.8 µM.

As for `CN(CCO)Cc1ncccc1O`, the TGI in experiment [1], in experiment [2], in experiment [3], in [4], in [5] and in [6] was > 100 µM in each case. The TGI in experiment [7], in [8], in [9] and in experiment [10] was > 100 µM in each case.

Regarding `COc1cc2c(cc1OC)C1c3ccccc3CCN1CCC2` (centres undefined), the TGI in experiment [1], in experiment [2], in experiment [3], in experiment [5], in [6] and in [7] was > 100 µM each time. Moreover, the TGI in experiment [8], in experiment [9] and in experiment [10] was > 100 µM in each case.

For `NC1C=NNC1=O` (centres undefined), the TGI in [1], in experiment [3], in experiment [5], in experiment [8], in [9] and in [10] was > 100 µM throughout.
